Test results reported in US4939124A, “Treatment and diagnosis of dementia” (Laboratorios Serono S.A., priority 1988, dated 1990).
No end group written: not given here.

How the values were obtained:
[1] = tested on: Male Wistar rats; experiment: Locomotor activity and learning in maze paradigm (escape from 1.5 mA shock area), i.c.v. injection; format: in vivo
Description: The animals had to learn to escape from the shock area in order to avoid a continuous 1.5 mA electric shock. Experimental time --30 minutes.
The rats were treated intracerebroventricularly with SS-14 (1 mcg) and GRF1-44 (1 mcg) and their behavior was automatically recorded by computer using the maze paradigm shown in FIG. 1. p/t denotes pulses per time unit (minute). Locomotor activity was quantified in pulses per minute or cm^2 /min. Total inputs (I/O) in neutral position (white bars) and shock position (black bars) denote how many times the animals enter neutral and shock areas. The N/S ratio results from dividing I/O in neutral position by I/O in shock position and is interpreted as an index of learning in the 30-minute experimental period. The positional time (seconds) represents how long the animals stay in neutral (white bars) or shock (black bars) areas. N-sp and S-sp (in seconds) indicate the time-latency per movement or input in neutral (white bars) and shock (black bars) areas, respectively.
(§1) To clarify whether SS and GRF display at the central level the same antagonistic effect that they have at the pituitary level, the effects of these neuropeptides on several behavioral parameters have been studied using the OUCEM-86^TM (Osaka University Computerized Electronic Maze). The system is integrated by the following components: a Programmable Electronic Platform (PEP) (620×620 mm) equipped with 48 photo beam sensors (OPX-T30); a Programming Panel (PP) (Model BECM-0064) for paradigm stimulation; a Shock Generator Scrambler (SGS) (Model BSG-1065) to apply continuous or discontinuous electric current to the PEP; a Control Station (CS) (BEC 16-Bio Computer Control Station BCS-1105; Bio Medica, Ltd., Osaka) which processes inputs/outputs as an interface device to automatically computerize behavioral parameters; and a Computer System (NEC PC-9801 VM2) with 1 megabyte Random Access Memory (RAM) for data processing and experimental setting.
(§2) Male Wistar rats (175-200 g) (N =5-8 rats/group) received intracerebroventricular (i.c.v.) injections of GRF1-44 and SS-14 over a range of 0.1 to 10 mcg. Then the rats were studied in the OUCEM under two different paradigms (e.g., open field and maze paradigms).
The amount of inputs (I/O) induced by SS was 103.5±29.5 (control =216.25±55.19, t=8.49, p<0.005) in the neutral area (NA) and 77.14±13.5 I/O in the shock area (SA) (control =298±40, t=1.26, n.s.). GRF generated 459.35±32.5 I/O in NA (t=18.13, p<0.005) and 340.5±63.5 I/O in SA (t=9.07, p<0.005) (FIGS. 1C,3). The NA/SA (N/S) ratios for control, SS- and GRF-treated rats were 0.72, 1.33, and 1.35, respectively (FIG. 2).

[2] = tested on: Male Wistar rats; experiment: Locomotor activity in open field paradigm (OUCEM-86), i.c.v. injection; format: in vivo; conditions: for ED50 of change in LA / Emax of change in LA (given as a dose): i.c.v., dose range 0.1 to 10 mcg
From the text: as §1, §2
The animals were placed in the PEP for 30-minute periods and locomotor activity (LA) was automatically recorded in an open field paradigm. Total LA is represented as total inputs (I/O) including movements in four-footed position (4F) and in two-footed position (2F), grooming, rearing and jumping activity, while linear (horizontal) movements (4F) are represented as pulses per minute (pm) or cm^2 /min

[3] = tested on: female in-patients with primary degenerative dementia (Alzheimer like); experiment: 8-day GRF (1-29) NH2 therapy, MMS Folstein test and Crichton's scale; format: in vivo, human; conditions: MMS-Folstein test and Crichton's scale test
Description: Twenty female in-patients with primary degenerative dementia (Alzheimer like) aged 67-84 years were divided in two therapy-groups with GRF (1-29) NH2. All patients were treated with this product for 8 days with either of the following schedules: (I) 250 mcg s.c. twice daily (II) 50 mcg i.v. twice daily Therapy was started after a 15-day wash-out period for psychotropic-drugs. Evolution of patients was assessed using the MMS Folstein test and Chrichton's scale test at 12 hours, 24 hours and 7 days after starting with GRF. The statistical evaluation was made using Friedman test with a risk level p<0,01 (highly significant differences).

Molecule | locomotor activity (LA), maze paradigm ([1]; 1 mcg i.c.v., 30 minutes, control 17.12±5.42 pm) [pm] | NA/SA (N/S) ratio (index of learning) ([1]; 1 mcg i.c.v., control 0.72) | amount of inputs (I/O) in the neutral area (NA) ([1]; 1 mcg i.c.v., control 216.25±55.19) [I/O] | amount of inputs (I/O) in the shock area (SA) ([1]; 1 mcg i.c.v., control 298±40) [I/O] | learning abilities (N/S ratio as index) ([1]; doses of approximately 6.10×10^-10 mol (SS) and 1.98×10^-10 mol (GRF), i.c.v.) | comparison of SS and GRF in improving learning ([1]; maze paradigm, i.c.v.) | locomotor activity (LA), open field ([2]; 1 mcg i.c.v. (SS-14 / GRF1-44), 30-minute period, control 31.16±6.90 pm) [pm] | ED50 of change in LA [2] [pmol] | Emax of change in LA (given as a dose) [2] [nmol] | overall effect confirmed by re-evaluation after end of administration [3]
C[C@H](N)C(=O)NCC(=O)N[C@H]1CSSC[C@@H](C(=O)O)NC(=O)[C@H](CO)NC(=O)[C@H]([C@@H](C)O)NC(=O)[C@H](Cc2ccccc2)NC(=O)[C@H]([C@@H](C)O)NC(=O)[C@H](CCCCN)NC(=O)[C@H](Cc2c[nH]c3ccccc23)NC(=O)[C@H](Cc2ccccc2)NC(=O)[C@H](Cc2ccccc2)NC(=O)[C@H](CC(N)=O)NC(=O)[C@H](CCCCN)NC1=O [SS, somatostatin] | 6.01±1.45 | 1.33 | 103.5±29.5 | 77.14±13.5 | improve learning abilities | more effective than GRF in improving learning | 20.88±2.82 | 1830 | 6.10 | 
GRF1-29: 1-29 segment of growth hormone releasing factor |  |  |  |  |  |  |  | 297 | 5.95 | 
GRF1-44: 1-44 segment of growth hormone releasing factor, injected i.c.v. in rats; called GRF in Examples 1-2 |  |  |  |  |  |  |  | 99.1 | 1.98 | 
GRF (1-29) NH2: GRF product given s.c. or i.v. to dementia patients; called GRF in Example 3 (YADAIFTNSYRKVLGQLSARKLLQDIMSR-NH2; UniProt P01286 32-60, looked up, fragment) |  |  |  |  |  |  |  |  |  | significant effect
